# Measurements as given in patent US8288418B2, “Benzimidazole derivatives and their use for modulating the GABAA receptor complex” (Neurosearch A/S, priority 2006, dated 2012).
# Molecular target: GABAA receptor complex, benzodiazepine modulatory unit (cerebral cortex membranes)
# Experiment: In vitro inhibition of 3H-flunitrazepam (3H-FNM) binding
# Parameters: species or system rat
# Conditions: inhibition of specific binding of 3H-FNM (1 nM), cerebral cortex membranes of male Wistar rats, 40 min at 2° C.
# Experimental: In vitro Inhibition of ^3H-flunitrazepam (^3H-FNM) Binding
# […] the benzodiazepine modulatory unit can selectively be labelled with ^3H-flunitrazepam.
# Preparations are performed at 0-4° C. unless otherwise indicated. Cerebral cortex from male Wistar rats (150-200 g) is homogenised for 5-10 sec in 20 ml Tris-HCl (30 mM, pH 7.4) using an Ultra-Turrax homogeniser. The suspension is centrifuged at 27,000×g for 15 min and the pellet is washed three times with buffer (centrifuged at 27,000×g for 10 min). The washed pellet is homogenized in 20 ml of buffer and incubated on a water bath (37° C.) for 30 min to remove endogenous GABA and then centrifuged for 10 min at 27,000×g. The pellet is then homogenized in buffer and centrifuged for 10 min at 27,000×g. The final pellet is resuspended in 30 ml buffer and the preparation is frozen and stored at −20° C.
# The membrane preparation is thawed and centrifuged at 2° C. for 10 min at 27,000×g. The pellet is washed twice with 20 ml 50 mM Tris-citrate, pH 7.1 using an Ultra-Turrax homogeniser and centrifuged for 10 min at 27,000×g. The final pellet is resuspended in 50 mM Tris-citrate, pH 7.1 (500 ml buffer per g of original tissue), and then used for binding assays. Aliquots of 0.5 ml tissue are added to 25 μl of test solution and 25 μl of ^3H-FNM (1 nM, final concentration), mixed and incubated for 40 min at 2° C. Non-specific binding is determined using Clonazepam (1 μM, final concentration). After incubation the samples are added 5 ml of ice-cold buffer and poured directly onto Whatman GF/C glass fibre filters under suction and immediately washed with 5 ml ice-cold buffer. The amount of radioactivity on the filters is determined by conventional liquid scintillation counting. Specific binding is total binding minus non-specific binding.
# 25-75% inhibition of specific binding must be obtained, before calculation of an IC50.
# The test value will be given as IC50 (the concentration (μM) of the test substance which inhibits the specific binding of ^3H-FNM by 50%).
# Co is specific binding in control assays, and
# Cx is the specific binding in the test assay.
# (The calculations assume normal mass-action kinetics).
row,Structure (SMILES),IC50
1,"COc1cc(F)ccc1-c1cccc(-n2cnc3cc(C(F)(F)F)ccc32)c1 [Compound 9a, 1-(4′-Fluoro-2′-methoxy-biphenyl-3-yl)-5-trifluoromethyl-1H-benzoimidazole]",1.4 nM
2,"CC(C)(O)c1ccc2c(c1)ncn2-c1cccc(-c2ccccc2C#N)c1 [Compound 9aac, 3′-[5-(1-Hydroxy-1-methyl-ethyl)-benzoimidazol-1-yl]-biphenyl-2-carbonitrile]",0.65 nM
3,"C[C@@H](O)c1ccc2c(c1)ncn2-c1cccc(-c2cccnc2F)c1 [Compound 9aba, (R)-1-{1-[3-(2-Fluoro-pyridin-3-yl)-phenyl]-1H-benzoimidazol-5-yl}-ethanol]",6.2 nM
4,"CC(C)(O)c1ccc2c(c1)ncn2-c1cccc(-c2cccnc2F)c1 [Compound 9ada, 2-{1-[3-(2-Fluoro-pyridin-3-yl)-phenyl]-1H-benzoimidazol-5-yl}-propan-2-ol]",4 nM
5,"COc1ccccc1-c1cccc(-n2cnc3cc(-c4cc[nH]n4)ccc32)c1 [Compound 9ak, 5-(1H-3-Pyrazolyl)-1-(2′-methoxy-biphenyl-3-yl)-1H-benzoimidazole]",21 nM
6,"N=C(NO)c1ccc2c(c1)ncn2-c1cccc(-c2ccccc2Cl)c1 [Compound 12ha, 1-(2′-Chloro-biphenyl-3-yl)-N-hydroxy-1H-benzoimidazole-5-carboxamidine]",0.95 nM

# System: not given
# Experiment: not given
# Conditions: not given
row,Structure (SMILES),melting point
1,"COc1cc(F)ccc1-c1cccc(-n2cnc3cc(C(F)(F)F)ccc32)c1 [Compound 9a, 1-(4′-Fluoro-2′-methoxy-biphenyl-3-yl)-5-trifluoromethyl-1H-benzoimidazole]",95.5 °C
2,"CC(=NO)c1ccc2c(c1)ncn2-c1cccc(-c2cccnc2O)c1 [Compound 15, 1-{1-[3-(2-Hydroxy-pyridin-3-yl)-phenyl]-1H-benzoimidazol-5-yl}-ethanone oxime]",220 to 223 °C
3,"CC(O)c1ccc2c(c1)ncn2-c1cccc(-c2cccnc2O)c1 (stereo not shown) [Compound 16, 3-{3-[5-(1-Hydroxy-ethyl)-benzoimidazol-1-yl]-phenyl}-pyridin-2-ol]",133 to 137 °C
4,"CC(C)OC(=O)c1ccc2c(c1)ncn2-c1cccc(-c2cccnc2Cl)c1 [Compound 19, 1-[3-(2-Chloro-pyridin-3-yl)-phenyl]-1H-benzoimidazole-5-carboxylic acid isopropyl ester]",147 to 150 °C
